{"source": "patent US9682995B2", "about": "“Amino-substituted isothiazoles” (BAYER PHARMA AKTIENGESELLSCHAFT, priority 2013, dated 2017)", "test_in_all_cases": "Kinase Profiling (KINOMEscan)", "assay_type_in_all_cases": "binding", "key": {"[1]": {"target": "456 kinases (of these 395 non-mutant kinases) (Homo sapiens, UniProt P00533, DEL752-759)", "conditions": "EGFR(S752-I759del); 10 μM"}, "[2]": {"target": "456 kinases (of these 395 non-mutant kinases) (Homo sapiens, UniProt P00533, T790M)", "conditions": "EGFR(T790M); 10 μM"}, "[3]": {"target": "456 kinases (of these 395 non-mutant kinases) (Homo sapiens, UniProt P04629)", "sequence (P04629 33-796 limits assumed, change not shown)": "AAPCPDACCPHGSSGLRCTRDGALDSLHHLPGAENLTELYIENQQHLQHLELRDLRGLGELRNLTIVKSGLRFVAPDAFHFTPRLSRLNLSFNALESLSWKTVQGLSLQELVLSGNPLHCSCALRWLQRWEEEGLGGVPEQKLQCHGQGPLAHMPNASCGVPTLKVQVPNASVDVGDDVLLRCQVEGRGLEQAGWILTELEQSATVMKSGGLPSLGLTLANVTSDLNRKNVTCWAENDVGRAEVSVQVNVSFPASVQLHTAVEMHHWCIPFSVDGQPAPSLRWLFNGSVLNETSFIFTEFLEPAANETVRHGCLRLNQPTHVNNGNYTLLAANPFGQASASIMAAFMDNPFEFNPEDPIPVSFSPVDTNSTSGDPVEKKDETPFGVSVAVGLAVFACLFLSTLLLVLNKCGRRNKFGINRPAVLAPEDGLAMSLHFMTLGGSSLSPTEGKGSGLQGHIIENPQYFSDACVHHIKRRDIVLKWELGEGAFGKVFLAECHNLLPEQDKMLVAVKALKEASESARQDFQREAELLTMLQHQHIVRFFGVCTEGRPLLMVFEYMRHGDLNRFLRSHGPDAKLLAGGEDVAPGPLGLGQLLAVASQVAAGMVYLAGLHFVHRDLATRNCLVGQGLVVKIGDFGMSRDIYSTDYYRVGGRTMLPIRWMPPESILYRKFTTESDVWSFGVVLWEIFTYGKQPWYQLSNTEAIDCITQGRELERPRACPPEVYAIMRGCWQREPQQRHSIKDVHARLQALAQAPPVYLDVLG", "conditions": "TRKA; 10 μM"}, "[4]": {"target": "456 kinases (of these 395 non-mutant kinases) (Homo sapiens, UniProt P06239)", "sequence (P06239 2-509 limits assumed, change not shown)": "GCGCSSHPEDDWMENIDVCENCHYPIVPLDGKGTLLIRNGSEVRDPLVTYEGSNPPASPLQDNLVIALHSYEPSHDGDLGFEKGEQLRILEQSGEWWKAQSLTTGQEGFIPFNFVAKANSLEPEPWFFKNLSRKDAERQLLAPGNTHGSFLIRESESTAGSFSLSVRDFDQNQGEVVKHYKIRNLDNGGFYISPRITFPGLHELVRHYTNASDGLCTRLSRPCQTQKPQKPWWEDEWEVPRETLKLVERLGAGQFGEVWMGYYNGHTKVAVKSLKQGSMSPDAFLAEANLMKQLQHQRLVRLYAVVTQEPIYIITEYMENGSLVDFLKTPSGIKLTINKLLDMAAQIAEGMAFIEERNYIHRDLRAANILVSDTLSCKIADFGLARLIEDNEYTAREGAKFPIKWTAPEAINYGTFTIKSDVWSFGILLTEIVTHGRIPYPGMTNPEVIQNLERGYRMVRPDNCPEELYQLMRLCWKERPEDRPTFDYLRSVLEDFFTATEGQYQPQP", "conditions": "LCK; 10 μM"}, "[5]": {"target": "456 kinases (of these 395 non-mutant kinases) (Homo sapiens, UniProt P11309)", "conditions": "PIM1; 10 μM"}, "[6]": {"target": "456 kinases (of these 395 non-mutant kinases) (Homo sapiens, UniProt P19525)", "sequence (P19525 2-551 limits assumed, change not shown)": "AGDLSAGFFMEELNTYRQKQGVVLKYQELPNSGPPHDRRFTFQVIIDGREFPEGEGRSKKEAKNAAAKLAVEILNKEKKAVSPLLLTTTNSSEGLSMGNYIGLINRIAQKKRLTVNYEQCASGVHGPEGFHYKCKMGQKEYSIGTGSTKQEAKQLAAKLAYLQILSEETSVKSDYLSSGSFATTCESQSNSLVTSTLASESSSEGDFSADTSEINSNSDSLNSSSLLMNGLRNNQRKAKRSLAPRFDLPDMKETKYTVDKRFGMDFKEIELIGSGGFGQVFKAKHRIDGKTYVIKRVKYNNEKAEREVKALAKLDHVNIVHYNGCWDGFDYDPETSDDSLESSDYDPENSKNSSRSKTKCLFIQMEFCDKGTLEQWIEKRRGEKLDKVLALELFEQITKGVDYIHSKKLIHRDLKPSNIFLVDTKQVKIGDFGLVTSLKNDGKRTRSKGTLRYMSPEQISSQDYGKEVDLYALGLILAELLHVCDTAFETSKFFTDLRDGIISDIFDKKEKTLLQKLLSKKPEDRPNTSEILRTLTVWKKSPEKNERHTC", "conditions": "PRKR; 10 μM"}, "[7]": {"target": "456 kinases (of these 395 non-mutant kinases) (Homo sapiens, UniProt P23458)", "conditions": "10 μM"}, "[8]": {"target": "456 kinases (of these 395 non-mutant kinases) (Homo sapiens, UniProt P29317)", "conditions": "EPHA2; 10 μM"}, "[9]": {"target": "456 kinases (of these 395 non-mutant kinases) (Homo sapiens, UniProt P32298)", "conditions": "GRK4; 10 μM"}, "[10]": {"target": "456 kinases (of these 395 non-mutant kinases) (Homo sapiens, UniProt P35590)", "conditions": "TIE1; 10 μM"}, "[11]": {"target": "456 kinases (of these 395 non-mutant kinases) (Homo sapiens, UniProt P36888)", "conditions": "10 μM"}, "[12]": {"target": "456 kinases (of these 395 non-mutant kinases) (Homo sapiens, UniProt P36888, D835Y)", "conditions": "FLT3(D835Y); 10 μM"}, "[13]": {"target": "456 kinases (of these 395 non-mutant kinases) (Homo sapiens, UniProt P37023)", "conditions": "ACVRL1; 10 μM"}, "[14]": {"target": "456 kinases (of these 395 non-mutant kinases) (Homo sapiens, UniProt P42336, E545K)", "conditions": "PIK3CA(E545K); 10 μM"}, "[15]": {"target": "456 kinases (of these 395 non-mutant kinases) (Homo sapiens, UniProt P42336, Q546K)", "conditions": "PIK3CA(Q546K); 10 μM"}, "[16]": {"target": "456 kinases (of these 395 non-mutant kinases) (Homo sapiens, UniProt P49137)", "conditions": "MAPKAPK2; 10 μM"}, "[17]": {"target": "456 kinases (of these 395 non-mutant kinases) (Homo sapiens, UniProt P54753)", "sequence (P54753 34-998 limits assumed, change not shown)": "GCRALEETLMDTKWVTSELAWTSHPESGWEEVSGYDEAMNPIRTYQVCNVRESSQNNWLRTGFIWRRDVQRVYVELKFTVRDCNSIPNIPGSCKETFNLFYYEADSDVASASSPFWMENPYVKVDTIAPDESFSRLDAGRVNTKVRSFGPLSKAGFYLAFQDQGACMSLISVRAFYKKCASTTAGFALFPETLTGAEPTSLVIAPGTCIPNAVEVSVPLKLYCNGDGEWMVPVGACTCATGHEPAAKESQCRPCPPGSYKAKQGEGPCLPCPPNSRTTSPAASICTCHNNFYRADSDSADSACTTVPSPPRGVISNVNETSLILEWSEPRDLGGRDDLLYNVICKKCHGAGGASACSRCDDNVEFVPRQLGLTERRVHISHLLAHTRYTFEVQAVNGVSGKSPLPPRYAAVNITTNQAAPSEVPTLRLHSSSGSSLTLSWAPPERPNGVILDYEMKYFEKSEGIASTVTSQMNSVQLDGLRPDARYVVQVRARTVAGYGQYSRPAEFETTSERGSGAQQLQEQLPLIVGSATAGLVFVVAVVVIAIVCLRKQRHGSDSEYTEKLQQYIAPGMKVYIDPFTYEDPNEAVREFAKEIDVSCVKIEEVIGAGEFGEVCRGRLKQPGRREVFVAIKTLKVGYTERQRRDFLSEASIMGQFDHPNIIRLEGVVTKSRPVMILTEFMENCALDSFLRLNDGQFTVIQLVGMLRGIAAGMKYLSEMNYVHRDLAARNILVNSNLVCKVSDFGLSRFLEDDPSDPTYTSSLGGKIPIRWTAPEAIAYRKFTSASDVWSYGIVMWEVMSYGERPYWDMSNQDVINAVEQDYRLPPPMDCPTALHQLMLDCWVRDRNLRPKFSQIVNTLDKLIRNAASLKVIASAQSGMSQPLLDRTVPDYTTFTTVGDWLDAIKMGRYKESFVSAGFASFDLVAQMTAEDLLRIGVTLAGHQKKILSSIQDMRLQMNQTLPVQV", "conditions": "EPHB3; 10 μM"}, "[18]": {"target": "456 kinases (of these 395 non-mutant kinases) (Homo sapiens, UniProt P57059)", "conditions": "SIK; 10 μM"}, "[19]": {"target": "456 kinases (of these 395 non-mutant kinases) (Homo sapiens, UniProt P57078)", "conditions": "RIPK4; 10 μM"}, "[20]": {"target": "456 kinases (of these 395 non-mutant kinases) (Homo sapiens, UniProt Q00537)", "conditions": "PCTK2; 10 μM"}, "[21]": {"target": "456 kinases (of these 395 non-mutant kinases) (Homo sapiens, UniProt Q08345)", "sequence (Q08345 19-913 limits assumed, change not shown)": "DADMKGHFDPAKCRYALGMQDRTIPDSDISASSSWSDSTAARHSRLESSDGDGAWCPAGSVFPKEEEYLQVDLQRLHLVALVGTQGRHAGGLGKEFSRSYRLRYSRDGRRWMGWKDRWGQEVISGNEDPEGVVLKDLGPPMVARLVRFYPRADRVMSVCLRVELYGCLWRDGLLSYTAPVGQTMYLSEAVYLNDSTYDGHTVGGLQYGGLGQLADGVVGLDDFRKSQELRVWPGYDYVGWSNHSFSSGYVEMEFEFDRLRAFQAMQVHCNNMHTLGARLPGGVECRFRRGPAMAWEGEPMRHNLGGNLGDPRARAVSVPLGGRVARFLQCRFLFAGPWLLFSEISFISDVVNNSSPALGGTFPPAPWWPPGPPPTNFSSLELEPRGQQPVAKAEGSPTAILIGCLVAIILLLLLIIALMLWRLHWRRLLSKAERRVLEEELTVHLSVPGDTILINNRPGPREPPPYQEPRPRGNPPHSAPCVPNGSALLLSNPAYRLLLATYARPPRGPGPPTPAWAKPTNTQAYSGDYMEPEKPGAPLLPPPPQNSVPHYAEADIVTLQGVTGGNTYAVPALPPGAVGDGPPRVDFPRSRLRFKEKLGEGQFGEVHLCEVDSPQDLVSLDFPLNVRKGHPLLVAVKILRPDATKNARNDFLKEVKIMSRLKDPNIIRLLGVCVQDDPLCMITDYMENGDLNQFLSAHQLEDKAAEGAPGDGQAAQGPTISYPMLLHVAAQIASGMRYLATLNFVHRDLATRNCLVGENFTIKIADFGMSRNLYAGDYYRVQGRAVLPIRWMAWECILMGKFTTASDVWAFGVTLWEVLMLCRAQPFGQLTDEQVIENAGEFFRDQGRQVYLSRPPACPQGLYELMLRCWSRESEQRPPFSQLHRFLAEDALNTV", "conditions": "DDR1; 10 μM"}, "[22]": {"target": "456 kinases (of these 395 non-mutant kinases) (Homo sapiens, UniProt Q32MK0)", "conditions": "MLCK; 10 μM"}, "[23]": {"target": "456 kinases (of these 395 non-mutant kinases) (Homo sapiens, UniProt Q6PHR2)", "conditions": "ULK3; 10 μM"}, "[24]": {"target": "456 kinases (of these 395 non-mutant kinases) (Homo sapiens, UniProt Q86UE8)", "conditions": "TLK2; 10 μM"}, "[25]": {"target": "456 kinases (of these 395 non-mutant kinases) (Homo sapiens, UniProt Q86Y07)", "conditions": "VRK2; 10 μM"}, "[26]": {"target": "456 kinases (of these 395 non-mutant kinases) (Homo sapiens, UniProt Q8NG66)", "conditions": "NEK11; 10 μM"}, "[27]": {"target": "456 kinases (of these 395 non-mutant kinases) (Homo sapiens, UniProt Q8WXR4)", "conditions": "MYO3B; 10 μM"}, "[28]": {"target": "456 kinases (of these 395 non-mutant kinases) (Homo sapiens, UniProt Q96Q40)", "conditions": "PFTAIRE2; 10 μM"}, "[29]": {"target": "456 kinases (of these 395 non-mutant kinases) (Homo sapiens, UniProt Q9H093)", "conditions": "SNARK; 10 μM"}, "[30]": {"target": "456 kinases (of these 395 non-mutant kinases) (Homo sapiens, UniProt Q9UF33)", "sequence (Q9UF33 23-1036 limits assumed, change not shown)": "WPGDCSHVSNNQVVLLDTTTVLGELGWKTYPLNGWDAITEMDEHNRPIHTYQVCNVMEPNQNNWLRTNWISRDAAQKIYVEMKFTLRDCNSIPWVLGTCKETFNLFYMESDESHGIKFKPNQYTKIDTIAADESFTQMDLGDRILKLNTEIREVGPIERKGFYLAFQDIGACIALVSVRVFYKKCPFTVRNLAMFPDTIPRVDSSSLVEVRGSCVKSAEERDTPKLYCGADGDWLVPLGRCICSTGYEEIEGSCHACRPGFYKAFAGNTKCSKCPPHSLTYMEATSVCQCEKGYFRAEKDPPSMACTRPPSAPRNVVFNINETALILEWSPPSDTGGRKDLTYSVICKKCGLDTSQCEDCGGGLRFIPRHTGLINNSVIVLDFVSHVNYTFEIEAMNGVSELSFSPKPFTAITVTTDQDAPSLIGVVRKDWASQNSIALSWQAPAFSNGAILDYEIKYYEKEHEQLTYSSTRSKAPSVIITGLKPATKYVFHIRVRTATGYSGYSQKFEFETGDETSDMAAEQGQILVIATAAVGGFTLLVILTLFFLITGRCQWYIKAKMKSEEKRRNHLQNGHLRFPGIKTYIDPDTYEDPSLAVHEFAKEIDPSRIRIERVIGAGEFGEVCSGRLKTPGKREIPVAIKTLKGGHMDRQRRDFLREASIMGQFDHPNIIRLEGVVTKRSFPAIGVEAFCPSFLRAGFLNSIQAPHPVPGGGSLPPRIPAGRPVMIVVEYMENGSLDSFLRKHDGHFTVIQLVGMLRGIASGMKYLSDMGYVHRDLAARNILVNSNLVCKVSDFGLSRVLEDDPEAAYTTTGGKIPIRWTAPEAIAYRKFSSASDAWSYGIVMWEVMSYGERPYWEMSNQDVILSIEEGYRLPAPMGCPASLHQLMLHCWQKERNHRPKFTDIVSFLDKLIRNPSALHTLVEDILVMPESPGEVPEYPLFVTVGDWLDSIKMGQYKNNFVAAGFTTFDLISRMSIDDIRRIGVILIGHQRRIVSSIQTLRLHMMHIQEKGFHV", "conditions": "EPHA6; 10 μM"}, "[31]": {"target": "456 kinases (of these 395 non-mutant kinases) (Homo sapiens, UniProt Q9UL54)", "conditions": "TAOK2; 10 μM"}}}
{"smiles": "CCc1ccccc1NC(=O)c1c(C)nsc1Nc1cnc2cc(F)ccc2n1", "note": "[Example 20, N-(2-Ethylphenyl)-5-[(6-fluoroquinoxalin-2-yl)amino]-3-methyl-1,2-thiazole-4-carboxamide]", "values": [{"measurement": "% Ctrl @ 10 μM", "setting": "[1]", "result": 100, "unit": "% Ctrl"}, {"measurement": "% Ctrl @ 10 μM", "setting": "[2]", "result": 100, "unit": "% Ctrl"}, {"measurement": "% Ctrl @ 10 μM", "setting": "[3]", "result": 100, "unit": "% Ctrl"}, {"measurement": "% Ctrl @ 10 μM", "setting": "[4]", "result": 94, "unit": "% Ctrl"}, {"measurement": "% Ctrl @ 10 μM", "setting": "[5]", "result": 100, "unit": "% Ctrl"}, {"measurement": "% Ctrl @ 10 μM", "setting": "[6]", "result": 100, "unit": "% Ctrl"}, {"measurement": "% Ctrl @ 10 μM", "setting": "[7]; JAK1(JH1domain-catalytic)", "result": 100, "unit": "% Ctrl"}, {"measurement": "% Ctrl @ 10 μM", "setting": "[7]; JAK1(JH2domain-pseudokinase)", "result": 71, "unit": "% Ctrl"}, {"measurement": "% Ctrl @ 10 μM", "setting": "[8]", "result": 88, "unit": "% Ctrl"}, {"measurement": "% Ctrl @ 10 μM", "setting": "[9]", "result": 77, "unit": "% Ctrl"}, {"measurement": "% Ctrl @ 10 μM", "setting": "[10]", "result": 100, "unit": "% Ctrl"}, {"measurement": "% Ctrl @ 10 μM", "setting": "[11]; FLT3-autoinhibited", "result": 100, "unit": "% Ctrl"}, {"measurement": "% Ctrl @ 10 μM", "setting": "[11]; FLT3", "result": 80, "unit": "% Ctrl"}, {"measurement": "% Ctrl @ 10 μM", "setting": "[12]", "result": 100, "unit": "% Ctrl"}, {"measurement": "% Ctrl @ 10 μM", "setting": "[13]", "result": 100, "unit": "% Ctrl"}, {"measurement": "% Ctrl @ 10 μM", "setting": "[14]", "result": 84, "unit": "% Ctrl"}, {"measurement": "% Ctrl @ 10 μM", "setting": "[15]", "result": 66, "unit": "% Ctrl"}, {"measurement": "% Ctrl @ 10 μM", "setting": "[16]", "result": 89, "unit": "% Ctrl"}, {"measurement": "% Ctrl @ 10 μM", "setting": "[17]", "result": 82, "unit": "% Ctrl"}, {"measurement": "% Ctrl @ 10 μM", "setting": "[18]", "result": 100, "unit": "% Ctrl"}, {"measurement": "% Ctrl @ 10 μM", "setting": "[19]", "result": 100, "unit": "% Ctrl"}, {"measurement": "% Ctrl @ 10 μM", "setting": "[20]", "result": 100, "unit": "% Ctrl"}, {"measurement": "% Ctrl @ 10 μM", "setting": "[21]", "result": 77, "unit": "% Ctrl"}, {"measurement": "% Ctrl @ 10 μM", "setting": "[22]", "result": 88, "unit": "% Ctrl"}, {"measurement": "% Ctrl @ 10 μM", "setting": "[23]", "result": 100, "unit": "% Ctrl"}, {"measurement": "% Ctrl @ 10 μM", "setting": "[24]", "result": 94, "unit": "% Ctrl"}, {"measurement": "% Ctrl @ 10 μM", "setting": "[25]", "result": 100, "unit": "% Ctrl"}, {"measurement": "% Ctrl @ 10 μM", "setting": "[26]", "result": 92, "unit": "% Ctrl"}, {"measurement": "% Ctrl @ 10 μM", "setting": "[27]", "result": 100, "unit": "% Ctrl"}, {"measurement": "% Ctrl @ 10 μM", "setting": "[28]", "result": 84, "unit": "% Ctrl"}, {"measurement": "% Ctrl @ 10 μM", "setting": "[29]", "result": 100, "unit": "% Ctrl"}, {"measurement": "% Ctrl @ 10 μM", "setting": "[30]", "result": 85, "unit": "% Ctrl"}, {"measurement": "% Ctrl @ 10 μM", "setting": "[31]", "result": 100, "unit": "% Ctrl"}]}
